Test results as given in PMC3684613 (PLoS ONE, 2013).
Where two headings read alike, the source gives them in different places.

Assays:
P. falciparum 3D7 [1] = system: P. falciparum 3D7; design: method as in ChEMBL-NTD; settings: ref ChEMBL-NTD, cited from earlier work
P. falciparum 3D7 [2] = experiment: DAPI stain fluorescent high content imaging assay, P. falciparum 3D7 (confirmatory screen, Avery); settings: Plasmodium falciparum; for EC50: 3D7, read-out: EC50_nM; for inhibition of growth at 5 µM: 3D7, read-out: percent_inh @ 5 uM; for inhibition of growth at 2 µM: 3D7, read-out: percent_inh @ 2 uM
[3] = original screening data, source (GSK, GNF, StJude), several values separated by ';' in order of sources

Row | SMILES | EC50 (P. falciparum 3D7 [2]) | inhibition of growth at 5 µM (P. falciparum 3D7 [2]) | further results
1 | COc1ccc(C(O)(CCC(C)C)C(CN2CCOCC2)c2ccc(Cl)cc2)cc1 (stereo not shown) [MMV000617] |  | 97% | EC50 (P. falciparum 3D7 [1]; source StJude (SJ ids)): 4610 nM
2 | CCCCC(O)(c1ccc(Cl)cc1)C(CN1CCOCC1)c1ccc(Cl)cc1 (stereo not shown) [MMV000619] | 1380 nM | 98% | EC50 (P. falciparum 3D7 [1]; source StJude (SJ ids)): 4010 nM
3 | Cc1ccc2c(C)nc(Nc3nc(C)cc(-c4ccccc4)n3)nc2c1 [MMV007041] | 4000 nM |  | EC50 (P. falciparum 3D7 [1]; values follow the order of the source (GNF; GSK; StJude)): 975 nM; inhibition of growth at 2 µM (P. falciparum 3D7 [2]): 73%
4 | Cc1ccc(F)cc1NC(=O)c1cc(Cl)ccc1Nc1ccccc1 [MMV007275] | 539 nM | 99% | EC50 (P. falciparum 3D7 [1]; source GNF (GNF-Pf ids)): 191 nM

The next lines start with results.

Row | EC50 (P. falciparum 3D7 [2]) | SMILES | inhibition of growth at 5 µM (P. falciparum 3D7 [2]) | further results
5 | 235 nM | CN(C)CCCNc1c2ccccc2nc2ccccc12 [MMV000448] | 95% | EC50 (P. falciparum 3D7 [1]; source GNF (GNF-Pf id)): 32.7 nM; EC50 (P. falciparum 3D7 [1]; source GSK (TCMDC id)): 1040 nM; EC50 (P. falciparum 3D7 [1]; source StJude (SJ id)): 531 nM
6 | 625 nM | CCN(Cc1ccccc1)C1CCN(Cc2cc(Br)ccc2O)CC1 [MMV019127] | 97% | EC50 (P. falciparum 3D7 [1]; [3]): 823 nM
7 | 662 nM | Cc1cc(Nc2cccc(F)c2)nc(NCc2ccccc2)n1 [MMV006319] |  | EC50 (P. falciparum 3D7 [1]; [3]): 72.2 nM; inhibition of growth at 2 µM (P. falciparum 3D7 [2]): 97%
